# Assay results from US4379155A, “3,5-Disubstituted-1H-1,2,4-triazole derivatives” (priority 1981, dated 1983).
# Tested on: hamsters
# Assay: Post-coital antifertility activity in pregnant hamsters, subcutaneous (days 4-8, autopsy day 14)
# Type: in vivo, Syrian golden hamsters
# Settings: 10 mg/kg s.c. daily for 5 days, days 4-8 of pregnancy, sesame oil
# Procedure: Representative experiments for assessing antifertility activity were carried out with femal Syrian golden hamsters weighing 100 to 130 g. The animals were mated and the presence of sperm in the vagina was taken as evidence of mating. […] Pregnancy was later confirmed at the time of autopsy by presence of fetuses or implantation sites in the uterus. Even if an animal aborts the fetus, implantation scars still remain as evidence that the animal has been pregnant.
# The animals were autopsied on day 14 of pregnancy and the uteri were examined for evidence of pregnancy (implantation sites, fetal resorptions or live fetuses), hemorrage, and evidence of abnormalities of the uterus, placenta or fetuses.
row,SMILES,antifertility activity (active: reduction of live fetuses in at least 60% of the treated animals)
1,"COc1cccc(-c2n[nH]c(-c3ccc(C)cc3C)n2)c1 [Example 26, 5-(2,4-Dimethylphenyl)-3-(m-methoxyphenyl)-1H-1,2,4-triazole]",active
2,"CCc1ccccc1-c1nc(-c2ccc3c(c2)OCO3)n[nH]1 [Example 22, 5-(o-Ethylphenyl)-3-(3,4-methylenedioxyphenyl)-1H-1,2,4-triazole]",active
3,"COc1cccc(-c2n[nH]c(-c3cc(Cl)ccc3C)n2)c1 [Example 32, 5-(5-Chloro-2-methylphenyl)-3-(m-methoxyphenyl)-1H-1,2,4-triazole]",active
4,"COc1ccccc1-c1n[nH]c(-c2ccccc2C)n1 [Example 4, 3-(o-Methoxyphenyl)-5-(o-tolyl)-1H-1,2,4-triazole]",active
5,"Cc1ccc(-c2nc(-c3ccccc3)n[nH]2)c(C)c1 [Example 25, 5-(2,4-Dimethylphenyl)-3-phenyl-1H-1,2,4-triazole]",active
6,"COc1cccc(-c2n[nH]c(-c3ccc(Cl)cc3C)n2)c1 [Example 30, 5-(4-Chloro-2-methylphenyl)-3-(m-methoxyphenyl)-1H-1,2,4-triazole]",active
7,"Cc1cc(Cl)ccc1-c1nc(-c2ccccc2)n[nH]1 [Example 29, 5-(4-Chloro-2-methylphenyl)-3-phenyl-1H-1,2,4-triazole]",active
8,"CCc1ccccc1-c1nc(-c2cccc(F)c2)n[nH]1 [Example 18, 5-(o-Ethylphenyl)-3-(m-fluorophenyl)-1H-1,2,4-triazole]",active
9,"c1ccc(-c2n[nH]c(-c3ccccc3)n2)cc1 [3,5-diphenyl-1H-1,2,4-triazole, reference compound]",much less active
10,"COc1cccc(-c2n[nH]c(-c3ccccc3C)n2)c1 [Example 1, 3-(m-Methoxyphenyl)-5-(o-tolyl)-1H-1,2,4-triazole]",active

# Tested on: rats
# Assay: Anti-reproductive activity in pregnant rats, subcutaneous (5 days from day 6, autopsy day 16)
# Type: in vivo, Sprague-Dawley rats
# Settings: Rattus norvegicus, sc, 384 h, 20 mg/kg s.c., five consecutive days from day 6 of pregnancy, sesame oil, read-out: reduction of live fetuses, % of the treated rats
# Procedure: The same criteria and experimental conditions as above were also applied when the anti-reproductive activity of the compounds of the invention was investigated in other animal species such as, for instance, rats, dogs, monkeys and baboons. In representative experiments, female Sprague-Dawley rats weighing from 200 to 300 g. were treated subcutaneously with a dosage of 20 mg/kg of the compound to be tested, dissolved in sesame oil, for five consecutive days starting from day 6 of pregnancy.
row,SMILES,responders at 20 mg/kg
1,"COc1cccc(-c2n[nH]c(-c3ccccc3C(C)C)n2)c1 [Example 16, 5-(o-Isopropylphenyl)-3-(m-methoxyphenyl)-1H-1,2,4-triazole]",≥ 60%
2,"Cc1ccccc1-c1nc(-c2ccc(-c3ccccc3)cc2)n[nH]1 [Example 11, 3-(1,1'-Biphenyl-4-yl)-5-(o-tolyl)-1H-1,2,4-triazole]",≥ 60%
3,"C=CCOc1cccc(-c2n[nH]c(-c3ccccc3CC)n2)c1 [Example 13, 3-(m-Allyloxyphenyl)-5-(o-ethylphenyl)-1H-1,2,4-triazole]",≥ 60%
4,"CC(C)c1ccccc1-c1nc(-c2ccccc2)n[nH]1 [Example 15, 5-(o-Isopropylphenyl)-3-phenyl-1H-1,2,4-triazole]",≥ 60%
5,"C=CCOc1cccc(-c2n[nH]c(-c3ccccc3C)n2)c1 [Example 10, 3-(m-Allyloxyphenyl)-5-(o-tolyl)-1H-1,2,4-triazole]",≥ 60%
6,"CCc1ccccc1-c1nc(-c2ccc(Cl)cc2)n[nH]1 [Example 14, 3-(p-Chlorophenyl)-5-(o-ethylphenyl)-1H-1,2,4-triazole]",≥ 60%
7,"CCOc1cccc(-c2n[nH]c(-c3ccccc3C)n2)c1 [Example 9, 3-(m-Ethoxyphenyl)-5-(o-tolyl)-1H-1,2,4-triazole]",≥ 60%
